The target in the assay is T1, KCNQ2/3 channels (Homo sapiens, UniProt O43525+O43526).
T1 construct: expressed in transfected cells
As to the kind of experiment: Fluorescence assay using a voltage sensitive dye (fluorimetry). Conditions: CHO-K1 cells expressing KCNQ2/3; for Emax: CHO-K1, plateau effect relative to saturated retigabine (50 μM) = 100%, negative values = antagonistic, read-out: Fluorimetry % efficacy (retigabine = 100%); for EC50: IC50 where % efficacy is negative, read-out: Fluorimetry EC50/IC50. In kind it is cell-based.

Experimental findings from patent US9168259B2 (GRÜNENTHAL GMBH, priority 2010, dated 2015) are described below.

The structures appear in SMILES notation.

T1 sequence (O43526 whole entry): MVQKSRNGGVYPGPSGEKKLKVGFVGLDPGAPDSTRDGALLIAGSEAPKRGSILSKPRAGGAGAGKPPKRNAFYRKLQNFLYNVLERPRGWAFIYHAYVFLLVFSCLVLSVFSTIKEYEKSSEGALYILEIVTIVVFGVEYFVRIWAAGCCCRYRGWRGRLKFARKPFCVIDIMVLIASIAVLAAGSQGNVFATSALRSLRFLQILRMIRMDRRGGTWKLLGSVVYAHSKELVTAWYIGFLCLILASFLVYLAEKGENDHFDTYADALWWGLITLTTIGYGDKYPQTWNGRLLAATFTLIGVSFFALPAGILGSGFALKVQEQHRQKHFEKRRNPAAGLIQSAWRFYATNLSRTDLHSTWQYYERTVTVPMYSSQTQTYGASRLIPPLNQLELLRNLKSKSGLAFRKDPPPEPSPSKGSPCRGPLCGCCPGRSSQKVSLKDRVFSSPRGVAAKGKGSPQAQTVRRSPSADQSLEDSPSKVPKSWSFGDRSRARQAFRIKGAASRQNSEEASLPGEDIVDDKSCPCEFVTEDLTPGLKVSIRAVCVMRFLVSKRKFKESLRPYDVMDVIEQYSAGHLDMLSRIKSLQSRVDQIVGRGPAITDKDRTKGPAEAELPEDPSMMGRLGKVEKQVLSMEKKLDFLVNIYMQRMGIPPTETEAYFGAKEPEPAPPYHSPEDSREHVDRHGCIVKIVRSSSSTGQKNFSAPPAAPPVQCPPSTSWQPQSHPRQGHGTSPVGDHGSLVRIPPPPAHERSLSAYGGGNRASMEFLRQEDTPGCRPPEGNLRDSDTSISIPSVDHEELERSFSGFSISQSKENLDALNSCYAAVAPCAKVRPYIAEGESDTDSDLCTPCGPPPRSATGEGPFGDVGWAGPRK
T1 sequence (O43525 whole entry): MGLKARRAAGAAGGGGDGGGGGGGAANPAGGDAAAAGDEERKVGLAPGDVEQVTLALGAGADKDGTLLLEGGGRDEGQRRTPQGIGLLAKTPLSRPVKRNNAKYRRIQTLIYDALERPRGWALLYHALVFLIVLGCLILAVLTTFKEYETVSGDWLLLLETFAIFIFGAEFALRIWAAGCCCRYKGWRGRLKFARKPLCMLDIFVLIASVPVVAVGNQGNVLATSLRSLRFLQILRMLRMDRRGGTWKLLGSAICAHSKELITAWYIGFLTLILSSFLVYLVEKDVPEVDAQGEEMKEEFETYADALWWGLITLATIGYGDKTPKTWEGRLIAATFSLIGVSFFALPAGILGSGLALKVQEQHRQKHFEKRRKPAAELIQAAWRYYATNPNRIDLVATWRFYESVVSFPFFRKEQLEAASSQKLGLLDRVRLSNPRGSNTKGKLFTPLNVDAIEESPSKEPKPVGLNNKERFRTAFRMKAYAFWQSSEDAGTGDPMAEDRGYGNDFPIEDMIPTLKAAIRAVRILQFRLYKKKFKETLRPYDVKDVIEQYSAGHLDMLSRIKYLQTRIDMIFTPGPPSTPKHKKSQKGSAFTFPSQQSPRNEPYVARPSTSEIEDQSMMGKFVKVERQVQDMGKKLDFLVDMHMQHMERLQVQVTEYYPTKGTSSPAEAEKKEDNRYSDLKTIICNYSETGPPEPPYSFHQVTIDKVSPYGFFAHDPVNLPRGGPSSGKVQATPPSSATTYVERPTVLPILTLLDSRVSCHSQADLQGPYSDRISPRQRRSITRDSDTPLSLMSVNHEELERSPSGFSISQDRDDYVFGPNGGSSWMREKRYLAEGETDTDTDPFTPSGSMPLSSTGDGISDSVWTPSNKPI

With `CCSc1nc(N2CCOCC2)cc(C)c1C(=O)NCc1ccc(C(F)(F)F)c(F)c1` [Example 142, 2-Ethylsulfanyl-N-[[3-fluoro-4-(trifluoromethyl)-phenyl]-methyl]-4-methyl-6-morpholin-4-yl-pyridine-3-carboxylic acid amide], the Emax is 125% and the EC50 came to 38 nM.

Consider `CCSc1nc(N2CCNC(=O)C2)cc(C)c1C(=O)NCc1cccc(F)c1` [Example 143, 2-Ethylsulfanyl-N-[(3-fluorophenyl)-methyl]-4-methyl-6-(3-oxo-piperazin-1-yl)-pyridine-3-carboxylic acid amide], for which the Emax was determined as 28%.

As to `CCSc1nc(N2CCN(C(C)=O)CC2)cc(C)c1C(=O)NCc1cccc(F)c1` [Example 144, 6-(4-Acetyl-piperazin-1-yl)-2-ethylsulfanyl-N-[(3-fluorophenyl)-methyl]-4-methyl-pyridine-3-carboxylic acid amide], the Emax amounted to 59%. As to `CCSc1nc(N2CCOCC2)cc(C)c1C(=O)NCc1ccc(C#N)cc1` [Example 145, N-[(4-Cyano-phenyl)-methyl]-2-ethylsulfanyl-4-methyl-6-morpholin-4-yl-pyridine-3-carboxylic acid amide], the Emax was determined as 145% and the EC50 turned out to be 673 nM.

On to `CCSc1nc(N2CCOCC2)cc(C)c1C(=O)NCc1ccc(COC)cc1` [Example 146, 2-Ethylsulfanyl-N-[[4-(methoxymethyl)-phenyl]-methyl]-4-methyl-6-morpholin-4-yl-pyridine-3-carboxylic acid amide], for which the Emax was 159% and the EC50 worked out at 2490 nM.

Turning to `CCSc1nc(N2CCOCC2)cc(C)c1C(=O)NCc1ccc(COC)c(F)c1` [Example 147, 2-Ethylsulfanyl-N-[[3-fluoro-4-(methoxymethyl)-phenyl]-methyl]-4-methyl-6-morpholin-4-yl-pyridine-3-carboxylic acid amide], the Emax was 153% and the EC50 is 530 nM. The like results for `CCSc1nc(N2CCOCC2)cc(C)c1C(=O)NCc1ccc(N(C)C)cc1` [Example 148, N-[(4-Dimethylaminophenyl)-methyl]-2-ethylsulfanyl-4-methyl-6-morpholin-4-yl-pyridine-3-carboxylic acid amide] were, in that order, 105% and 3620 nM. Regarding `CCSc1nc(N2CCOCC2)cc(C)c1C(=O)NCc1ccc(F)c(COC)c1` [Example 149, 2-Ethylsulfanyl-N-[[4-fluoro-3-(methoxymethyl)-phenyl]-methyl]-4-methyl-6-morpholin-4-yl-pyridine-3-carboxylic acid amide], the Emax was determined as 136% and the EC50 came to 451 nM. With `CCSc1nc(N2CCN(C)C(=O)C2)cc(C)c1C(=O)NCc1cccc(F)c1` [Example 150, 2-Ethylsulfanyl-N-[(3-fluorophenyl)-methyl]-4-methyl-6-(4-methyl-3-oxo-piperazin-1-yl)-pyridine-3-carboxylic acid amide], the Emax is 98% and the EC50 amounted to 9650 nM. In the same order, the values of `CCSc1nc(N2CC3(COC3)C2)cc(C)c1C(=O)NCc1cccc(F)c1` [Example 151, 2-Ethylsulfanyl-N-[(3-fluorophenyl)-methyl]-4-methyl-6-(6-oxa-2-azaspiro[3.3]heptan-2-yl)-pyridine-3-carboxylic acid amide] are 92% and 12100 nM. Turning to `CSc1nc(N2CCOCC2)cc(C)c1C(=O)NCCCC(C)(C)C` [Example 152, N-(4,4-Dimethyl-pentyl)-4-methyl-2-methylsulfanyl-6-morpholin-4-yl-pyridine-3-carboxylic acid amide], the Emax was 249% and the EC50 is 63 nM. The like results for `CSc1nc(N2CCOCC2)cc(C)c1C(=O)NCCCC(F)(F)F` [Example 153, 4-Methyl-2-methylsulfanyl-6-morpholin-4-yl-N-(4,4,4-trifluoro-butyl)-pyridine-3-carboxylic acid amide] were, in that order, 210% and 676 nM.

As for `CSc1nc(N2CCOCC2)cc(C)c1C(=O)NCc1ccc(F)cc1` [Example 154, N-[(4-Fluorophenyl)-methyl]-4-methyl-2-methylsulfanyl-6-morpholin-4-yl-pyridine-3-carboxylic acid amide], the Emax is 154% and the EC50 is 394 nM. Take `CSc1nc(N2CCOCC2)cc(C)c1C(=O)NCc1ccc(F)c(F)c1` [Example 155, N-[(3,4-Difluoro-phenyl)-methyl]-4-methyl-2-methylsulfanyl-6-morpholin-4-yl-pyridine-3-carboxylic acid amide]: the Emax worked out at 158% and the EC50 came out at 152 nM. With `CSc1nc(N2CCOCC2)cc(C)c1C(=O)NCc1cc(F)cc(F)c1` [Example 156, N-[(3,5-Difluoro-phenyl)-methyl]-4-methyl-2-methylsulfanyl-6-morpholin-4-yl-pyridine-3-carboxylic acid amide], the Emax came out at 167% and the EC50 was 157 nM.

With `CSc1nc(N2CCOCC2)cc(C)c1C(=O)NCc1ccc(C(F)(F)F)cc1` [Example 157, 4-Methyl-2-methylsulfanyl-6-morpholin-4-yl-N-[[4-(trifluoromethyl)-phenyl]-methyl]-pyridine-3-carboxylic acid amide], the Emax came to 127% and the EC50 stood at 166 nM. In the case of `CCSc1nc(N2CCN3C(=O)CCC3C2)cc(C)c1C(=O)NCc1cccc(F)c1` (centres unmarked) [Example 158, 2-Ethylsulfanyl-N-[(3-fluorophenyl)-methyl]-4-methyl-6-(6-oxo-2,3,4,7,8,8a-hexahydro-1H-pyrrolo[1,2-a]pyrazin-2-yl)-pyridine-3-carboxylic acid amide], the Emax worked out at 60%.

Regarding `CCSc1nc(N2CC3CC2CO3)cc(C)c1C(=O)NCc1cccc(F)c1` (centres unmarked) [Example 159, 2-Ethylsulfanyl-N-[(3-fluorophenyl)-methyl]-4-methyl-6-(3-oxa-6-azabicyclo[2.2.1]heptan-6-yl)-pyridine-3-carboxylic acid amide], the Emax was 149% and the EC50 came to 1260 nM. On to `CCSc1nc(N2CCOCC2)cc(C)c1C(=O)NCCCC#N` [Example 160, N-(3-Cyano-propyl)-2-ethylsulfanyl-4-methyl-6-morpholin-4-yl-pyridine-3-carboxylic acid amide], for which the Emax amounted to 70%.

`CCSc1nc(N2CCOCC2)cc(C)c1C(=O)NCc1ccc(C)cc1` [Example 161, 2-Ethylsulfanyl-4-methyl-6-morpholin-4-yl-N-(p-tolyl-methyl)-pyridine-3-carboxylic acid amide]: the Emax amounted to 143% and the EC50 stood at 366 nM. Regarding `CCSc1nc(N2CCOCC2)cc(C)c1C(=O)NCCCS(C)(=O)=O` [Example 162, 2-Ethylsulfanyl-4-methyl-N-(3-methylsulfonyl-propyl)-6-morpholin-4-yl-pyridine-3-carboxylic acid amide], the Emax was determined as 21%. Still for that read-out and setting: the result for `CCSc1nc(N2CCOCC2)cc(C)c1C(=O)NCCCCC#N` [Example 163, N-(4-Cyano-butyl)-2-ethylsulfanyl-4-methyl-6-morpholin-4-yl-pyridine-3-carboxylic acid amide] reads 73%. Regarding `CCSc1nc(N2CCOCC2)cc(C)c1C(=O)NCc1cccc(C)c1` [Example 164, 2-Ethylsulfanyl-4-methyl-6-morpholin-4-yl-N-(m-tolyl-methyl)-pyridine-3-carboxylic acid amide], the Emax is 122% and the EC50 was 237 nM. In the same order, the values of `COc1nc(N2CCOCC2)cc(C)c1C(=O)NCc1ccc(Cl)cc1` [Example 165, N-[(4-Chlorophenyl)-methyl]-2-methoxy-4-methyl-6-morpholin-4-yl-pyridine-3-carboxylic acid amide] are 135% and 230 nM. In the same order, the values of `CCOc1nc(N2CCOCC2)cc(C)c1C(=O)NCc1ccc(Cl)cc1` [Example 166, N-[(4-Chlorophenyl)-methyl]-2-ethoxy-4-methyl-6-morpholin-4-yl-pyridine-3-carboxylic acid amide] are 134% and 117 nM. In the same order, the values of `CCSc1nc(N2CCOC(CC)C2)cc(C)c1C(=O)NCc1cccc(F)c1` (centres unmarked) [Example 167, 6-(2-Ethyl-morpholin-4-yl)-2-ethylsulfanyl-N-[(3-fluorophenyl)-methyl]-4-methyl-pyridine-3-carboxylic acid amide] are 137% and 113 nM. `CSc1nc(N2CCOCC2)cc(C)c1C(=O)NCc1ccc(Cl)cc1` [Example 168, N-[(4-Chlorophenyl)-methyl]-4-methyl-2-methylsulfanyl-6-morpholin-4-yl-pyridine-3-carboxylic acid amide]: the Emax was found to be 149% and the EC50 was determined as 132 nM.

Turning to `Cc1cc(N2CCOC[C@H]2C)nc(C(C)C)c1C(=O)NCc1ccc(F)cc1` [Example 169, N-[(4-Fluorophenyl)-methyl]-2-isopropyl-4-methyl-6-[(3R)-3-methyl-morpholin-4-yl]-pyridine-3-carboxylic acid amide], the Emax was found to be 197% and the EC50 amounted to 24 nM.

In the case of `CCSc1nc(N(C)c2ccccn2)cc(C)c1C(=O)NCc1cccc(F)c1` [Example 170, 2-Ethylsulfanyl-N-[(3-fluorophenyl)-methyl]-4-methyl-6-(methyl-pyridin-2-yl-amino)-pyridine-3-carboxylic acid amide], the Emax stood at 84% and the EC50 was found to be 1240 nM. In the same order, the values of `CCSc1nc(N(C)c2cccnc2)cc(C)c1C(=O)NCc1cccc(F)c1` [Example 171, 2-Ethylsulfanyl-N-[(3-fluorophenyl)-methyl]-4-methyl-6-(methyl-pyridin-3-yl-amino)-pyridine-3-carboxylic acid amide] are 62% and 1940 nM. In the same order, the values of `Cc1cc(N2CCOC[C@H]2C)nc(N(C)C)c1C(=O)NCc1ccc(F)cc1` [Example 172, 2-Dimethylamino-N-[(4-fluorophenyl)-methyl]-4-methyl-6-[(3R)-3-methyl-morpholin-4-yl]-pyridine-3-carboxylic acid amide] are 246% and 378 nM.
